Measured values published in ChEMBL document CHEMBL2057103, “Synthesis and biological activity of novel bifunctional isoxazolidinyl polycyclic aromatic hydrocarbons” (Bioorg Med Chem, 2012).
Activity calls are given as the source filed them. The calls are words filed in the database; no cut-off is given here.

Legend:
Nucleic Acid [1] = assay: Binding affinity to Escherichia coli phiX174 RF1 DNA poly-d(G-C)2 fragment assessed as DNA unwinding in presence of topoisomerase 1 after 30 mins by electrophoresis; assay type: nucleic-acid assay
A549 = assay: Cytotoxicity against human A549 cells after 20 hrs by SRB assay; assay type: functional, cell-based; details: A549, 20 h
Vero = assay: Cytotoxicity against african green monkey Vero cells after 20 hrs by MTS assay; assay type: cell-based; details: Chlorocebus sabaeus
U-937 = assay: Cytotoxicity against human U937 cells after 20 hrs by MTS assay; assay type: functional, cell-based; details: U-937, 20 h
THP-1 = assay: Cytotoxicity against human THP1 cells after 20 hrs by MTS assay; assay type: functional, cell-based; details: THP-1, 20 h
MOLT-3 = assay: Cytotoxicity against human MOLT3 cells after 20 hrs by MTS assay; assay type: functional, cell-based; details: MOLT-3, 20 h
HeLa = assay: Cytotoxicity against human HeLa cells after 20 hrs by MTS assay; assay type: functional, cell-based
Nucleic Acid [2] = assay: Binding affinity to Escherichia coli phiX174 RF1 DNA poly GC fragment assessed as DNA unwinding in presence of topoisomerase 1 after 30 mins by electrophoresis; assay type: nucleic-acid assay

**Q.** With `OC[C@@H]1C[C@H](c2ccc3ccc4cccc5ccc2c3c45)N(Cc2ccccc2O)O1` as the compound, how does the Activity (Nucleic Acid [1]) read?
**A.** Its Activity is “Active”.

**Q.** Which results are given for `OC[C@@H]1C[C@H](c2ccc3ccc4cccc5ccc2c3c45)N(Cc2ccccc2O)O1` (racemic) [listing 1 of 2 here]?
**A.** IC50 (A549): 2 µM; IC50 (Vero): 37 µM; IC50 (U-937): 32 µM; IC50 (THP-1): 7 µM; IC50 (MOLT-3): 5 µM; IC50 (HeLa): 4 µM

**Q.** Which results are given for `OC[C@H]1C[C@H](c2ccc3ccc4cccc5ccc2c3c45)N(Cc2ccccc2O)O1` (racemic)?
**A.** IC50 (A549): 9 µM; IC50 (Vero): 103 µM; IC50 (U-937): 88 µM; IC50 (THP-1): 15 µM; IC50 (MOLT-3): 13 µM; IC50 (HeLa): 11 µM

**Q.** With `OC[C@@H]1C[C@H](c2ccc3ccc4cccc5ccc2c3c45)N(Cc2ccccc2O)O1` (racemic) [listing 2 of 2 here] as the compound, how does the Activity (Nucleic Acid [2]) read?
**A.** Its Activity is “Active”.
